Where two headings read alike, the source gives them in different places.
Biological target: interaction between HDM2 and p53 (GST-hMDM2 (1-188) / biotinylated-p53 (1-83)) (Homo sapiens (Human), UniProt Q00987)
Experiment: HTRF2 Assay (improved HTRF assay)
Format: binding
Settings: read-out: HTRF2 IC50
[1] = 0.2 nM GST-hMDM2 (1-188), 0.5 nM biotinylated-p53 (1-83), 100 mM KF

interaction between HDM2 and p53 (GST-hMDM2 (1-188) / biotinylated-p53 (1-83)), sequence (Q00987 1-188): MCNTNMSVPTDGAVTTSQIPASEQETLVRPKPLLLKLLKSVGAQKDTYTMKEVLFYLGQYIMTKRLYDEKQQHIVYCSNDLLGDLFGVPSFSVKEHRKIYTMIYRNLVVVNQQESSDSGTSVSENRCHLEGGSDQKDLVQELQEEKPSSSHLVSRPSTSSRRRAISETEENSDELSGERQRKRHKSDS

SMILES: CCC[C@H](CCC(=O)O)N1C(=O)[C@H](Cc2ccc(F)cc2)O[C@@H](c2ccc(Cl)cc2)[C@H]1c1ccc(Cl)cc1 (mixture of isomers) [Example 31, (R)-4-((2S,3R,6S)-2,3-Bis(4-chlorophenyl)-6-(4-fluorobenzyl)-5-oxomorpholino)heptanoic acid and (S)-4-((2R,3S,6R)-2,3-bis(4-chlorophenyl)-6-(4-fluorobenzyl)-5-oxomorpholino)heptanoic acid]
- IC50: 1.33 µM

SMILES: CS(=O)(=O)c1ccc(C[C@@H]2O[C@@H](c3ccc(Cl)cc3)[C@@H](c3ccc(Cl)cc3)N(c3cccnc3)C2=O)c(F)c1 (mixture of isomers) [Example 63, (2S,5R,6S)-5,6-Bis(4-chlorophenyl)-2-(2-fluoro-4-(methylsulfonyl)benzyl)-4-(pyridin-3-yl)morpholin-3-one and (2R,5S,6R)-5,6-bis(4-chlorophenyl)-2-(2-fluoro-4-(methylsulfonyl)benzyl)-4-(pyridin-3-yl)morpholin-3-one]
- IC50: 20 µM

SMILES: O=C1[C@H](Cc2ccc(F)cc2)O[C@@H](c2ccc(Cl)cc2)[C@@H](c2ccc(Cl)cc2)N1c1ccnc(Cl)c1 (racemic) [Example 58, (2S,5R,6S)-5,6-Bis(4-chlorophenyl)-4-(2-chloropyridin-4-yl)-2-(4-fluorobenzyl)morpholin-3-one and (2R,5S,6R)-5,6-bis(4-chlorophenyl)-4-(2-chloropyridin-4-yl)-2-(4-fluorobenzyl)morpholin-3-one]
- IC50: 5 µM

SMILES: CS(=O)(=O)c1ccc(C[C@@H]2O[C@@H](c3ccc(Cl)cc3)[C@@H](c3ccc(Cl)cc3)N(c3cccnc3)C2=O)cc1 (racemic) [Example 62, (2S,5R,6S)-5,6-Bis(4-chlorophenyl)-2-(4-(methylsulfonyl)benzyl)-4-(pyridin-3-yl)morpholin-3-one and (2R,5S,6R)-5,6-bis(4-chlorophenyl)-2-(4-(methylsulfonyl)benzyl)-4-(pyridin-3-yl)morpholin-3-one]
- IC50: 15.8 µM

SMILES: CCC[C@H](C(=O)NCCCC(=O)O)N1C(=O)[C@H](Cc2ccc(S(C)(=O)=O)cc2)O[C@@H](c2ccc(Cl)cc2)[C@H]1c1ccc(Cl)cc1 [4-(((2R)-2-((2S,3R,6S)-2,3-bis(4-chlorophenyl)-6-(4-(methylsulfonyl)benzyl)-5-oxo-4-morpholinyl)pentanoyl)amino)butanoic acid]
- IC50 [1]: 2.44 µM

SMILES: CCC[C@H](C(=O)O)N1C(=O)[C@H](CCN2CCCCC2)O[C@@H](c2ccc(Cl)cc2)[C@H]1c1ccc(Cl)cc1 [(2R)-2-((2S,3R,6S)-2,3-bis(4-chlorophenyl)-5-oxo-6-(2-(1-piperidinyl)ethyl)-4-morpholinyl)pentanoic acid]
- IC50 [1]: 1.73 µM

SMILES: CCC[C@H](C(=O)O)N1C(=O)[C@H](CCN2CCN(C)CC2)O[C@@H](c2ccc(Cl)cc2)[C@H]1c1ccc(Cl)cc1 [(2R)-2-((2S,3R,6S)-2,3-bis(4-chlorophenyl)-6-(2-(4-methyl-1-piperazinyl)ethyl)-5-oxo-4-morpholinyl)pentanoic acid]
- IC50 [1]: 0.79 µM

SMILES: CCC[C@H](C(=O)O)N1C(=O)[C@H](CCN2CCOCC2)O[C@@H](c2ccc(Cl)cc2)[C@H]1c1ccc(Cl)cc1 [(2R)-2-((2S,3R,6S)-2,3-bis(4-chlorophenyl)-6-(2-(4-morpholinyl)ethyl)-5-oxo-4-morpholinyl)pentanoic acid]
- IC50 [1]: 1.49 µM

SMILES: CCC[C@H](C(=O)O)N1C(=O)[C@H](Cc2ccccc2OC)O[C@@H](c2ccc(Cl)cc2)[C@H]1c1ccc(Cl)cc1 [(2R)-2-((2S,3R,6S)-2,3-bis(4-chlorophenyl)-6-(2-methoxybenzyl)-5-oxo-4-morpholinyl)pentanoic acid]
- IC50 [1]: 0.496 µM

SMILES: CCC[C@H](C(=O)O)N1C(=O)[C@H](CCCn2ccnc2)O[C@@H](c2ccc(Cl)cc2)[C@H]1c1ccc(Cl)cc1 [(2R)-2-((2S,3R,6S)-2,3-bis(4-chlorophenyl)-6-(3-(1H-imidazol-1-yl)propyl)-5-oxo-4-morpholinyl)pentanoic acid]
- IC50 [1]: 0.973 µM

SMILES: CCC[C@H](C(=O)O)N1C(=O)[C@H](CCCO)O[C@@H](c2ccc(Cl)cc2)[C@H]1c1ccc(Cl)cc1 [(2R)-2-((2S,3R,6S)-2,3-bis(4-chlorophenyl)-6-(3-hydroxypropyl)-5-oxo-4-morpholinyl)pentanoic acid]
- IC50 [1]: 3.01 µM

SMILES: CCC[C@H](C(=O)O)N1C(=O)[C@H](Cc2cccc(OC)c2)O[C@@H](c2ccc(Cl)cc2)[C@H]1c1ccc(Cl)cc1 [(2R)-2-((2S,3R,6S)-2,3-bis(4-chlorophenyl)-6-(3-methoxybenzyl)-5-oxo-4-morpholinyl)pentanoic acid]
- IC50 [1]: 1.11 µM

SMILES: CCC[C@H](CC(=O)O)N1C(=O)[C@@H](Cc2ccc(F)cc2)O[C@H](c2cccc(Cl)c2)[C@@H]1c1ccc(Cl)cc1 [(3R)-3-((2R,3S,6R)-2-(3-chlorophenyl)-3-(4-chlorophenyl)-6-(4-fluorobenzyl)-5-oxo-4-morpholinyl)hexanoic acid]
- IC50 [1]: 1.15 µM

SMILES: CCC[C@H](CC(=O)O)N1C(=O)[C@H](Cc2ccc(F)cc2)O[C@@H](c2cccc(Cl)c2)[C@H]1c1ccc(Cl)cc1 [(3R)-3-((2S,3R,6S)-2-(3-chlorophenyl)-3-(4-chlorophenyl)-6-(4-fluorobenzyl)-5-oxo-4-morpholinyl)hexanoic acid]
- IC50 [1]: 3.66 µM

SMILES: CCC[C@H](CCC(=O)O)N1C(=O)CO[C@H](c2ccc(Cl)cc2)[C@@H]1c1ccc(Cl)cc1 [(4R)-4-((2R,3S)-2,3-bis(4-chlorophenyl)-5-oxo-4-morpholinyl)heptanoic acid]
- IC50 [1]: 4.14 µM

SMILES: CCC[C@H](CCC(=O)O)N1C(=O)CO[C@@H](c2ccc(Cl)cc2)[C@H]1c1ccc(Cl)cc1 [(4R)-4-((2S,3R)-2,3-bis(4-chlorophenyl)-5-oxo-4-morpholinyl)heptanoic acid]
- IC50 [1]: 24.7 µM

SMILES: O=C1CO[C@@H](c2ccc(Cl)cc2)[C@@H](c2ccc(Cl)cc2)N1c1cc(Cl)nc(Cl)c1 [(5R,6S)-5,6-bis(4-chlorophenyl)-4-(2,6-dichloro-4-pyridinyl)-3-morpholinone]
- IC50 [1]: 63 µM

SMILES: O=C1CO[C@@H](c2ccc(Cl)cc2)[C@@H](c2ccc(Cl)cc2)N1c1ccnc(Cl)c1 [(5R,6S)-5,6-bis(4-chlorophenyl)-4-(2-chloro-4-pyridinyl)-3-morpholinone]
- IC50 [1]: 7.18 µM

SMILES: O=C1CO[C@@H](c2ccc(Cl)cc2)[C@@H](c2ccc(Cl)cc2)N1c1cnccn1 [(5R,6S)-5,6-bis(4-chlorophenyl)-4-(2-pyrazinyl)-3-morpholinone]
- IC50 [1]: 9.3 µM

SMILES: CCC[C@H](C(=O)O)N1C(=O)[C@H](Cc2ccccc2)O[C@@H](c2ccc(Cl)cc2)[C@H]1c1ccc(Cl)cc1 [Example 44, (R)-2-((2S,5R,6S)-2-Benzyl-5,6-bis(4-chlorophenyl)-3-oxomorpholino)pentanoic acid]
- IC50 [1]: 0.757 µM

SMILES: CCC[C@H](C(=O)O)N1C(=O)[C@H](Cc2ccc(F)cc2C#N)O[C@@H](c2ccc(Cl)cc2)[C@H]1c1ccc(Cl)cc1 [Example 45, (R)-2-((2S,3R,6S)-2,3-Bis(4-chlorophenyl)-6-(2-cyano-4-fluorobenzyl)-5-oxomorpholino)pentanoic acid]
- IC50 [1]: 0.466 µM

SMILES: CCC[C@H](C(=O)O)N1C(=O)[C@H](Cc2ccccc2C#N)O[C@@H](c2ccc(Cl)cc2)[C@H]1c1ccc(Cl)cc1 [Example 46, (R)-2-((2S,3R,6S)-2,3-Bis(4-chlorophenyl)-6-(2-cyanobenzyl)-5-oxomorpholino)pentanoic acid]
- IC50 [1]: 0.259 µM

Reference: patent US11407721B2, “CIS-morpholinone and other compounds as MDM2 inhibitors for the treatment of cancer” (AMGEN INC., priority 2013, dated 2022)
